Measurements as given in patent publication US20200155478A1, “XIBORNOL FOR USE IN THE TREATMENT OF ACNE VULGARIS” (ABIOGEN PHARMA S.P.A., priority 2017, published 2020).
Values after ≈ are worked out from the molar mass of the structure shown.

Columns and labels:
[1] = system: inflammatory cytokine IL-8; assay: Mouse model for Acne vulgaris induced by Propionibacterium acnes, IL-8 ELISA in ear homogenate supernatants; format: in vivo, Balb/c strain mice
Method: For the experiment, female Balb/c strain mice were used, grouped according to the experimental plan shown below in Table 5: [table] The sham group consisted of mice which received an intradermal injection, in each ear, of 25 μl of D-PBS (Dulbecco's phosphate buffered saline), while the other two groups consisted of mice which received an intradermal injection, in each ear, of 25 μl of D-PBS containing 10^8 CFU (colony-forming units) of Propionibacterium acnes. As of the day following the injection: • the sham group of mice was not treated; • the control group was treated, once a day, for 7 consecutive days, directly to the sites of inoculation of the bacterium, with a topical application of the formulation without active principle, i.e. with the carrier, consisting of three parts of paraffin oil and two parts of filamentary vaseline; • the […], once a day, for 7 consecutive days, directly to the sites of inoculation of the bacterium), with a topical application of the formulation containing xibornol in a concentration of 0.1% (corresponding to 0.79 mg/mL) in the carrier, consisting of three parts of paraffin oil and two parts of filamentary vaseline. The mice were sacrificed 24 hours after the last topical application. […]

[2] = Dissolution of xibornol in 4% isopropanol; format: physicochemical
Method: In order to perform the antimicrobial tests in aqueous solutions (broth and agar), said xibornol, a lipophilic molecule, was dissolved in a hydrophilic solvent, and more specifically in isopropanol.

[3] = system: Propionibacterium acnes; assay: Determination of the minimum bactericidal concentration (MBC), inoculation on RCA plates; format: cell-based
Method: (§1) Two strains of Propionibacterium acnes were used for this test: the Grerath strain (ATCC-11827) and the VPI 0389 strain (ATCC-6919).
(§2) Clostridial differential broth (CDB, liquid medium) and reinforced clostridial agar (RCA, solid medium) were used for the culture. Growth occurred under anaerobic conditions obtained in a 7.0 L GENBOX JAR.
(§3) The anaerobic conditions were obtained by activating the Anaerocult A preparation and the anaerobiosis control was assessed by using ANAEROTEST strips for microbiology.
(§4) The Propionibacterium acnes was incubated at 37° C. for 72 hours.
To determine the minimum bactericidal concentration (MBC), 10 μl of solution was taken from each well on the above described plate and inoculated on RCA plates containing the same concentrations of xibornol in 4% isopropanol present in the wells of the plate.

[4] = system: Propionibacterium acnes; assay: Determination of the minimum inhibitory concentration (MIC), 96-well broth plate, OD 600 nm and PrestoBlue; format: cell-based
Method: as §1, §2, §3, §4
Propionibacterium acnes strains were reactivated from ATCC vials, rehydrated with CDB medium, and then seeded on RCA plates.
To cultivate Propionibacterium acnes in broth, isolated colonies were taken from culture plates and inoculated in the CBD medium.
After culturing, the concentration of bacterial cells was normalised using the McFarland 0.5 standard.
A 96-well plate was prepared in order to establish the minimum inhibitory concentration; the xibornol was dissolved in a 4% isopropanol solution in various concentrations, and the samples were prepared according to the experimental plan shown in the following table 1.
All the wells in rows D, E, F and the first three wells from the left in row H contained Propionibacterium acnes at the final concentration of 5×10^5 bacteria/mL.
Row G (wells 1, 2, 3) was the negative control and contained only the culture medium, without bacteria, xibornol, or isopropanol.
Row H (wells 1,2,3) was the positive control and contained the bacterial culture without xibornol or isopropanol.
Unmarked wells were empty.
The reading of the plate, after an incubation under anaerobic conditions at 37° C., was performed after 72 hours.
A first spectrophotometer reading was taken, including measurement of the OD (optical density) at 600 nm.
To highlight the presence or absence of bacterial growth on the plate described above, PrestoBlue was also used, which is a resazurin-based solution which uses the reducing power of cells to measure cell proliferation. Said solution is blue and turns into red upon contact with live bacterial cells.
After having incubated the plate with the PrestoBlue and read the fluorescence values by using a Victor 3 Wallac microplate reader, the data were confirmed.

[5] = system: RHE EPISKIN artificial epidermis; assay: Skin irritation and sensitisation test (OECD TG 404), MTT viability; format: cell-based, human; details: liquid formulations of xibornol, isopropanol and PBS buffer; 42' contact, assessed after 42 hours
Method: In order to establish the usable concentrations of xibornol in solution for the production of pharmaceutical forms intended for external topical use, a skin irritation and sensitisation test was carried out, according to standard OECD TG 404, method B.4, Annex V, Directive 67/548/EEC. A RHE EPISKIN artificial epidermis unit was used for the test. The kit consisted of 24 reconstructed epidermis units with a total area of 0.33 cm^2. Each unit consisted of a collagen matrix with a stratified, differentiated epidermis derived from human keratinocytes placed on top thereof. The substances to be tested were placed in contact (42′) with the epidermis and the effects assessed after 42 hours, incubating the units with MTT (3-(4,5-dimethylthiazol-2-yl)-2,5-diphenyltetrazolium bromide) which, under the experimental conditions, reduced to formazan upon contact with metabolically active cells, turning the coloured solution from yellow into blue. Since the obtained colour is directly proportional to the concentration of formazan, and therefore to the cell viability, after incubation with MTT for 3 hours, optical density readings were taken by using the spectrophotometer (DO 572-650 nm).

- amount of xibornol dissolved by 4% isopropanol [2]: up to 1200 μg/mL
- MIC ([4]; Cutibacterium acnes, ATCC 11827 / ATCC 6919, 72 h, strains ATCC-11827 and ATCC-6919, anaerobic, 37° C., 72 hours, xibornol racemate in 4% isopropanol): 4.69 to 9.37 mg/L (≈ 18.1 to 36.3 µM)
- minimum inhibitory concentration (MIC) ([4]; strains ATCC-11827 and ATCC-6919, anaerobic, 37° C., 72 hours, xibornol racemate in 4% isopropanol): 9.37 mg/L (≈ 36.3 µM)
Structure (SMILES): Cc1cc(O)c(C2CC3CCC2(C)C3(C)C)cc1C (racemic) [xibornol, 4,5-dimethyl-2-[1,7,7-trimethylbicyclo[2.2.1]heptan-2-yl]phenol]
- Average concentration of IL-8 ([1]; 0.1% xibornol (0.79 mg/mL) in paraffin oil/vaseline carrier, topical once a day for 7 days, ear homogenate supernatant): 190.61 pg/mL
- change in IL-8 levels with respect to the control group ([1]; 0.1% xibornol topical, once a day for 7 days): significant reduction
- minimum bactericidal concentration (MBC) ([3]; 10 μl from each well inoculated on RCA plates with the same xibornol concentrations in 4% isopropanol): 9.37 mg/L (≈ 36.3 µM)
- MBC ([3]; Cutibacterium acnes, 10 μl from each well inoculated on RCA plates with the same xibornol concentrations in 4% isopropanol): 4.69 to 9.37 mg/L (≈ 18.1 to 36.3 µM)
- growth on RCA plates ([3]; xibornol 4.69 μg/mL): massive growth, comparable to that of the positive control
- antibacterial efficacy compared with clindamycin ([4]; Propionibacterium acnes): comparable to that of clindamycin
- bacterial growth in wells ([4]; xibornol at 4.69 μg/mL, 2.34 μg/mL, 1.17 μg/mL, 72 hours, PrestoBlue red colour): bacterial growth was observed
- concentration of xibornol administrable topically without irritation or sensitisation of the epidermis [5]: less than 5 mg/mL
- concentration of xibornol administrable topically without irritation or sensitisation of the epidermis, even more preferably [5]: less than 2.5 mg/mL
